A melting point compilation (Tetko et al.; mined from patent text by program, amines drawn as free bases though some values may be those of a salt)

melting point [°C]	Structure (SMILES)
138 to 141	CC1(C=C(Cl)Cl)CN(C(=O)Nc2ccc(OC(F)(F)F)cc2)N=C1c1ccc(Cl)cc1 (stereo unspecified)
158 to 160	N#CCCN1c2ccccc2Sc2ccccc21
236	CCN(CC)C(=O)c1c(C(C)(O)c2cc3cnccc3n2S(=O)(=O)c2ccccc2)ccnc1OC (stereo unspecified)
231 to 232	O=C1CCC(c2ccc(NC(=O)C3(Cl)CC3)cc2)=NN1
260 to 272	CNc1cc(N)c(C(=O)O)cc1[N+](=O)[O-]
188 to 190	Cn1c2ccccc2c(=O)c2cscc21
193 to 194	COc1ccc(C(=O)CN(C)C(=O)/C=C/c2cccnc2)cc1OC
175 to 176	COC(=S)NCc1cn(-c2cc(F)c(N3CCC(=O)CC3)c(F)c2)nn1
162 to 164	COC(=O)c1c(Cc2ccc(C(=O)NCCO)cc2)c(=O)c2ccc(Cl)cc2n1-c1ccccc1
157	CCOC1CC(n2cc(CC)c(=O)[nH]c2=O)OC1CO (stereo unspecified)
160 to 163	CC1(C)C(=O)N(c2ccnc(NC(=O)NCc3ccccn3)c2)c2cccnc21
194 to 196	CN(C(=O)CNc1nc(-c2ccccc2)ncc1[N+](=O)[O-])c1ccccc1
39	Cc1cc(C(C)(C)C)cc(C)c1Cl
156 to 158	COc1nc(C)cnc1N(C(=O)OCC(C)C)S(=O)(=O)c1cccnc1-c1ccc(I)cc1
176 to 178	COc1ccnc(CCc2nc3c(C)cc(C)nc3[nH]2)c1
207 to 209	O=C(NCc1ccc2c(c1)OCO2)c1ccc(C(=O)NCc2ccc3c(c2)OCO3)s1
153 to 156	O=S(=O)(c1c(Br)c(Br)n(CCl)c1-c1ccc(Cl)cc1)C(F)(F)F
95.5 to 96.5	Cc1cccc(N2CCN(CCc3c(C)nc4ccccn4c3=O)CC2)c1
297 to 299	COc1cc2c(cc1OC)-c1cc(Nc3c(C)cccc3C)nc(=O)n1CC2
162 to 164	O=C1NC(=O)C(=Cc2ccc(N3CCC(NC[C@H](O)COc4cccc5[nH]c(=O)[nH]c45)CC3)c(F)c2)S1
93 to 94	Cc1c(C)c2c(c(C)c1NCc1ccc(Cl)cc1)C(c1ccc(C(C)C)cc1)C(C)(C)O2 (stereo unspecified)
148 to 149	C=CCNC(=O)N(O)Cc1c(C)n(C(=O)c2ccc(Cl)cc2)c2ccc(OC)cc12
173 to 174	CC(C)(C)c1cc(CCc2ccccc2NC(=O)NCCc2ccc(Cl)cc2)cc(C(C)(C)C)c1O
133 to 135	CN(CCSCc1n[nH]c(CSCCN(C)C(N)=S)n1)C(N)=S

melting point [°C]	Structure (SMILES)
174	COc1cccc(NC(=O)NCC(=O)N2[C@@H](C(=O)OC(C)(C)C)CC[C@H]2c2ccccc2)c1 (racemic)
189 to 190	CC(=O)Nc1ccc2c3c(cccc13)S(=O)(=O)C(C)N2 (stereo unspecified)
208 to 212	CC(C)(C)OC(=O)N1CCC(c2ccc3[nH]c(-c4ccc(S(C)(=O)=O)cc4F)nc3c2)CC1
67.4 to 68.2	OCC/C(CCCCCCCCS)=C(\CCO)CCCCCCCCS
190 to 191	Cc1ccccc1C1CC(=O)c2c(C)c[nH]c2C1 (stereo unspecified)
188	Cc1cc(C(=O)O)n(-c2ccc(F)cc2)n1
171 to 173	Cc1ccc(Cl)cc1N1CN(C)CNC1=S
110	Oc1ccc(N=C(C=COc2ccccc2)Oc2ccccc2)cc1
203 to 208	CCOC(=O)c1cn(-c2nc(NCc3ccc(OC)cc3)c(F)cc2F)c2c(F)c(F)c(F)c(F)c2c1=O
190 to 192	CC(C)(COC(=O)COc1ccc(C(=O)CN2Cc3cc(C#N)ccc3C2=O)cc1)NS(=O)(=O)c1cccnc1
150 to 155	CC(=O)c1c(C(=O)N(C)C)[nH]c2ccc(Cl)cc12
> 300	CCOCCn1cc2c(=O)[nH]c(=O)[nH]c2n1
55 to 56	O=[N+]([O-])Cc1cccc(OCc2ccccc2)c1
172	COc1ccccc1CC(=O)N1C[C@@H]2SCCC(c3ccccc3)(c3ccccc3)[C@@H]2C1 (racemic)
108 to 109	CCOC(=O)c1ccc(-c2nc(COc3ccc(CO)cc3OC)c(C)o2)s1
114 to 115	COc1ccc(CNc2ccccc2C(=O)Nc2ccc(F)c(C(F)(F)F)c2)cn1
198 to 200	CSc1cc2c(cc1C(F)(F)F)N(C(=O)Nc1cccc(C(=O)NCCN3CCOCC3)c1)CC2
107 to 108	CCCc1c(OCCCOc2cccc3c2CCCC3)ccc2c1OC(CCC=O)(CCC=O)CC2=O
234 to 235	Cn1c(C(=O)N[C@H]2CCCC[C@H]2C(=O)N[C@@H](CCC(N)=O)C(N)=O)cc2ccccc21
207	CCOc1ccc(-c2c(Cl)ncn2-c2ccc(S(C)(=O)=O)cc2)cc1
166 to 168	COc1cc(NC2CCN(S(=O)(=O)c3ccccc3)CC2)ccc1C(N)=O
152 to 155	O=C(Nc1ccc(N2CCCC2)cc1)N(C[C@H]1CC[C@H](CN(C(=O)Nc2ccc(N3CCCC3)cc2)C2CCCCCC2)CC1)C1CCCCCC1
232 to 234	N#Cc1ncccc1-c1ccc2c(c1)C1(CCCCC1)C(=O)N2
136 to 138	NC(=O)c1cc2cc(OCC(O)CCl)ccc2o1 (stereo unspecified)

melting point [°C]	Structure (SMILES)
132 to 134	O=[N+]([O-])c1ccc(C2=NNC(CO)Cc3cc4c(cc32)OCO4)cc1 (stereo unspecified)
98	CC(=S)c1cncn1C(c1ccccc1)c1ccccc1
82 to 83	Nn1ccc(C(=O)c2ccccc2)c1
81	CCCCCC[Si]1(CCCCCC)C([Si](C)(C)C)=C(c2ccccc2)C(c2ccccc2)=C1[Si](C)(C)C
39 to 40	c1ccc(CSc2nc3ccccc3s2)cc1
142 to 143	Cc1cccc2sc(-n3nc(CCC(=O)N(C)O)cc3-c3ccsc3)nc12
173 to 176	O=C(O)C1=Cc2cc(OCc3ccccc3)c(OCc3ccccc3)cc2CC1
165 to 167	N#Cc1ccc(OCCCCCOc2ccc(-c3cc4ccc(C#N)cc4o3)cc2)cc1
195 to 196	CC1(C)CCSc2ccc(CC#Cc3ccc(C(=O)O)c(O)c3)cc21
277	COc1ccc(CSc2cnc(O)nc2O)cc1
247 to 249	O=C(Nc1nc(Cl)c(C(=O)NCc2ccccc2)s1)c1ccccc1
169 to 170	O=C(NC(Cc1c[nH]c2ccccc12)C(=O)Oc1c(F)c(F)c(F)c(F)c1F)OCc1ccccc1 (stereo unspecified)
112	COc1ccc2oc(Cc3cc(C(F)(F)F)cc(C(F)(F)F)c3)c(CC#N)c2c1
220 to 224	COc1ccc2c(c1)C(=O)c1ccc(C3=NCCN3)cc1S2(=O)=O
75 to 77	COc1cc(C(C)=O)c(OC)cc1C
167 to 169	CS(=O)(=O)Nc1ccc(C(=O)O)cc1Oc1ccc(F)cc1F
112 to 114	CC(=O)NCCOC(c1ccc(F)cc1)c1ccc(F)cc1
174 to 175	CCOC(=O)C1=C(C)NC(=NC#N)N(C(=O)OCC)C1c1cccc([N+](=O)[O-])c1 (stereo unspecified)
133 to 134	CCCc1nn(-c2ccc(C(F)(F)F)cn2)cc1CCCOc1c(CC(=O)O)cccc1OCC
137 to 140	Oc1cccc2c3ccccc3n(C3CCCCO3)c12 (stereo unspecified)
154 to 157	Cc1ccc(CC2(O)CCN(CC3=Cc4ccc(O)cc4C3)CC2)cc1
101 to 103	CC(=O)NC(C)c1ccc(CN2CCN(c3ccc(F)cc3)CC2)cc1 (stereo unspecified)
120	Nc1ccc(F)c(SC(F)(F)F)c1
78 to 80	COC1=CC(=O)[C@H](C(=O)O[C@@H]2C[C@H](C)CC[C@H]2C(C)C)[C@@H](C)C1

melting point [°C]	Structure (SMILES)
61 to 74	CC(C)(C)c1cc(CCC(=O)OC2CCCCCCCCCCC2OC(=O)CCc2cc(C(C)(C)C)c(O)c(C(C)(C)C)c2)cc(C(C)(C)C)c1O (stereo unspecified)
124 to 125	CC(C)(C)CC(C)(C)c1cc(-n2nc3ccc(Sc4ccccc4)cc3n2)c(O)c(C(C)(C)c2ccccc2)c1
90.5 to 92.5	C=C(Br)C(=O)Nc1ccccc1
200 to 205	O=C(O)CCNc1cc(C(c2cc(F)ccc2F)S(=O)(=O)c2ccc(Cl)cc2)c(Cl)cn1 (stereo unspecified)
208 to 209	Cn1c(-c2ccc([N+](=O)[O-])cc2)nc2ccccc21
225 to 228	O=C1Nc2ccccc2C12COc1ccc(Br)cc12 (stereo unspecified)
219 to 220	NC(=O)c1c(Cl)c(-c2ccccc2)n2c1CN(C(=O)N1CCOCC1)CC2
103 to 105	CC(=O)Oc1cc(N(C)C2CCCCC2)c2ccccc2c1OC(C)=O
107	CCOC(=O)CC(=O)c1cc2cc(F)c(F)cc2nc1Cl
163	CCC1OCCn2c1nc(C(=O)NCc1ccc(F)cc1-n1ncnc1C)c(OCc1ccccc1)c2=O (stereo unspecified)
190 to 191	Cc1cc(Cl)nc(NC(=O)NS(=O)(=O)c2ccccc2OC(F)F)n1
234 to 236	Cc1cc2oc(=O)c(NC(=O)Nc3ccc(Cl)cc3)c(-c3ccccc3C)c2cc1C
95 to 97	N#Cc1ccc(NC(=O)NCCCCl)cc1
62.4 to 64.1	Nc1ccccc1Nc1ccc(Oc2ccc(C(c3ccc(Oc4ccc(Nc5ccccc5N)cc4)cc3)(C(F)(F)F)C(F)(F)F)cc2)cc1
151 to 152	Cn1c(Br)c(Br)c(C#N)c1Br
190	N#Cc1cnn2c(C(F)(F)F)cc(-c3ccc(F)c(Cl)c3)nc12
156	COc1ccc(C(CN2CCN(Cc3ccccc3)C2=O)NC(C)=O)cc1OC (stereo unspecified)
154 to 155	COc1ccc(-c2cnc(N)c(Sc3ccc(Cl)cc3)n2)cc1
70 to 72	CCOC(=O)c1cc([N+](=O)[O-])c(Cl)nc1C(=O)OCC
120 to 121	CCOC(Cc1ccc2oc(CN3c4ccccc4Sc4ccccc43)cc2c1)C(=O)O (stereo unspecified)
175 to 178	O=C(Nc1ccc(N2CCCCC2)cc1)N(C[C@H]1CC[C@H](CN(C(=O)Nc2ccc(N3CCCCC3)cc2)C2CCCCCC2)CC1)C1CCCCCC1
141 to 142	CCCN(c1ccccc1)c1nc(=O)c2cccnc2s1

Structure (SMILES)	melting point [°C]
CCS(=O)CC(O)(C(=O)Nc1ccc(C#N)c(C(F)(F)F)c1)C(F)(F)F (stereo unspecified)	141 to 143
O=c1c2cc(I)ccc2nc(Cl)n1-c1ccc(Cl)cc1	178 to 180
